Structures are written as SMILES.

What all share (format): toxicity, organism-based
Data set [1] deals with Salmonella typhimurium. As to the kind of experiment: Mutagenicity in Salmonella typhimurium TA98 assessed as mutagenicity index at 435.85 uM/plate incubated for 90 mins at 37 degC in absence of liver S9 fractions by Ames test relative to untreated control. The settings on record: salmonella enterica subsp. enterica serovar typhimurium, 1.5 h.
The test system of data set [2] is Salmonella typhimurium. Description: Mutagenicity in Salmonella typhimurium TA98 assessed as mutagenicity index at 700.00 uM/plate incubated for 90 mins at 37 degC in absence of liver S9 fractions by Ames test relative to untreated control. The following applies: salmonella enterica subsp. enterica serovar typhimurium, 1.5 h.
Data set [3] deals with Salmonella typhimurium. Description: Mutagenicity in Salmonella typhimurium TA98 assessed as mutagenicity index at 296.15 uM/plate incubated for 90 mins at 37 degC in presence of liver S9 fractions by Ames test relative to untreated control. The settings on record: salmonella enterica subsp. enterica serovar typhimurium, s9, 1.5 h.
Data set [4] deals with Salmonella typhimurium. Description: Mutagenicity in Salmonella typhimurium TA98 assessed as mutagenicity index at 570.37 uM/plate incubated for 90 mins at 37 degC in presence of liver S9 fractions by Ames test relative to untreated control. The following applies: salmonella enterica subsp. enterica serovar typhimurium, s9, 1.5 h.
For data set [5], the system named is Salmonella typhimurium. Description: Mutagenicity in Salmonella typhimurium TA100 assessed as mutagenicity index at 570.37 uM/plate incubated for 90 mins at 37 degC in absence of liver S9 fractions by Ames test relative to untreated control. The following applies: salmonella enterica subsp. enterica serovar typhimurium, 1.5 h.
For data set [6], the system named is Salmonella typhimurium. Description: Mutagenicity in Salmonella typhimurium TA100 assessed as mutagenicity index at 435.85 uM/plate incubated for 90 mins at 37 degC in presence of liver S9 fractions by Ames test relative to untreated control. The following applies: salmonella enterica subsp. enterica serovar typhimurium, s9, 1.5 h.
For data set [7], the system named is Salmonella typhimurium. Description: Mutagenicity in Salmonella typhimurium TA100 assessed as mutagenicity index at 570.37 uM/plate incubated for 90 mins at 37 degC in presence of liver S9 fractions by Ames test relative to untreated control. The following applies: salmonella enterica subsp. enterica serovar typhimurium, s9, 1.5 h.
Data set [8] deals with Salmonella typhimurium. As to the kind of experiment: Mutagenicity in Salmonella typhimurium TA97a assessed as mutagenicity index at 150.98 uM/plate incubated for 90 mins at 37 degC in absence of liver S9 fractions by Ames test relative to untreated control. The settings on record: salmonella enterica subsp. enterica serovar typhimurium, 1.5 h.
For data set [9], the system named is Salmonella typhimurium. As to the kind of experiment: Mutagenicity in Salmonella typhimurium TA97a assessed as mutagenicity index at 296.15 uM/plate incubated for 90 mins at 37 degC in absence of liver S9 fractions by Ames test relative to untreated control. The settings on record: salmonella enterica subsp. enterica serovar typhimurium, 1.5 h.
Data set [10] relates to Salmonella typhimurium. Description: Mutagenicity in Salmonella typhimurium TA97a assessed as mutagenicity index at 435.85 uM/plate incubated for 90 mins at 37 degC in absence of liver S9 fractions by Ames test relative to untreated control. The settings on record: salmonella enterica subsp. enterica serovar typhimurium, 1.5 h.
The test system of data set [11] is Salmonella typhimurium. Description: Mutagenicity in Salmonella typhimurium TA97a assessed as mutagenicity index at 570.37 uM/plate incubated for 90 mins at 37 degC in absence of liver S9 fractions by Ames test relative to untreated control. The settings on record: salmonella enterica subsp. enterica serovar typhimurium, 1.5 h.
Data set [12] relates to Salmonella typhimurium. As to the kind of experiment: Mutagenicity in Salmonella typhimurium TA97a assessed as mutagenicity index at 296.15 uM/plate incubated for 90 mins at 37 degC in presence of liver S9 fractions by Ames test relative to untreated control. The following applies: salmonella enterica subsp. enterica serovar typhimurium, s9, 1.5 h.
For data set [13], the system named is Salmonella typhimurium. As to the kind of experiment: Mutagenicity in Salmonella typhimurium TA97a assessed as mutagenicity index at 435.85 uM/plate incubated for 90 mins at 37 degC in presence of liver S9 fractions by Ames test relative to untreated control. The following applies: salmonella enterica subsp. enterica serovar typhimurium, s9, 1.5 h.
The subject of data set [14] is Salmonella typhimurium. As to the kind of experiment: Mutagenicity in Salmonella typhimurium TA97a assessed as mutagenicity index at 570.37 uM/plate incubated for 90 mins at 37 degC in presence of liver S9 fractions by Ames test relative to untreated control. The following applies: salmonella enterica subsp. enterica serovar typhimurium, s9, 1.5 h.
Data set [15] relates to Salmonella typhimurium. Description: Mutagenicity in Salmonella typhimurium TA102 assessed as mutagenicity index at 150.98 uM/plate incubated for 90 mins at 37 degC in absence of liver S9 fractions by Ames test relative to untreated control. The following applies: salmonella enterica subsp. enterica serovar typhimurium, 1.5 h.
Data set [16] has as its system Salmonella typhimurium. Description: Mutagenicity in Salmonella typhimurium TA102 assessed as mutagenicity index at 700.00 uM/plate incubated for 90 mins at 37 degC in absence of liver S9 fractions by Ames test relative to untreated control. The settings on record: salmonella enterica subsp. enterica serovar typhimurium, 1.5 h.
Data set [17] relates to Salmonella typhimurium. As to the kind of experiment: Mutagenicity in Salmonella typhimurium TA102 assessed as mutagenicity index at 570.37 uM/plate incubated for 90 mins at 37 degC in presence of liver S9 fractions by Ames test relative to untreated control. The following applies: salmonella enterica subsp. enterica serovar typhimurium, s9, 1.5 h.
Data set [18] has as its system Salmonella typhimurium. Description: Mutagenicity in Salmonella typhimurium TA98 assessed as mutagenicity index at 313.73 uM/plate incubated for 90 mins at 37 degC in presence of liver S9 fractions by Ames test relative to control. The following applies: salmonella enterica subsp. enterica serovar typhimurium, s9, 1.5 h.
Data set [19] concerns Salmonella typhimurium. Description: Mutagenicity in Salmonella typhimurium TA98 assessed as mutagenicity index at 616.38 uM/plate incubated for 90 mins at 37 degC in presence of liver S9 fractions by Ames test relative to control. The settings on record: salmonella enterica subsp. enterica serovar typhimurium, s9, 1.5 h.
The test system of data set [20] is Salmonella typhimurium. As to the kind of experiment: Mutagenicity in Salmonella typhimurium TA98 assessed as mutagenicity index at 905.66 uM/plate incubated for 90 mins at 37 degC in presence of liver S9 fractions by Ames test relative to control. The following applies: salmonella enterica subsp. enterica serovar typhimurium, s9, 1.5 h.
Data set [21] deals with Salmonella typhimurium. Description: Mutagenicity in Salmonella typhimurium TA98 assessed as mutagenicity index at 1185.19 uM/plate incubated for 90 mins at 37 degC in presence of liver S9 fractions by Ames test relative to control. The following applies: salmonella enterica subsp. enterica serovar typhimurium, s9, 1.5 h.
Data set [22] deals with Salmonella typhimurium. As to the kind of experiment: Mutagenicity in Salmonella typhimurium TA98 assessed as mutagenicity index at 1454.55 uM/plate incubated for 90 mins at 37 degC in presence of liver S9 fractions by Ames test relative to control. The following applies: salmonella enterica subsp. enterica serovar typhimurium, s9, 1.5 h.
Data set [23] deals with Salmonella typhimurium. As to the kind of experiment: Mutagenicity in Salmonella typhimurium TA100 assessed as mutagenicity index at 1454.55 uM/plate incubated for 90 mins at 37 degC in absence of liver S9 fractions by Ames test relative to control. The following applies: salmonella enterica subsp. enterica serovar typhimurium, 1.5 h.
Data set [24] has as its system Salmonella typhimurium. As to the kind of experiment: Mutagenicity in Salmonella typhimurium TA100 assessed as mutagenicity index at 616.38 uM/plate incubated for 90 mins at 37 degC in presence of liver S9 fractions by Ames test relative to control. The following applies: salmonella enterica subsp. enterica serovar typhimurium, s9, 1.5 h.
Data set [25] has as its system Salmonella typhimurium. As to the kind of experiment: Mutagenicity in Salmonella typhimurium TA97a assessed as mutagenicity index at 905.66 uM/plate incubated for 90 mins at 37 degC in absence of liver S9 fractions by Ames test relative to control. The settings on record: salmonella enterica subsp. enterica serovar typhimurium, 1.5 h.
In data set [26] the test system is Salmonella typhimurium. Description: Mutagenicity in Salmonella typhimurium TA97a assessed as mutagenicity index at 616.38 uM/plate incubated for 90 mins at 37 degC in presence of liver S9 fractions by Ames test relative to control. The following applies: salmonella enterica subsp. enterica serovar typhimurium, s9, 1.5 h.
Data set [27] deals with Salmonella typhimurium. As to the kind of experiment: Mutagenicity in Salmonella typhimurium TA102 assessed as mutagenicity index at 905.66 uM/plate incubated for 90 mins at 37 degC in absence of liver S9 fractions by Ames test relative to control. The settings on record: salmonella enterica subsp. enterica serovar typhimurium, 1.5 h.
Data set [28] relates to Salmonella typhimurium. As to the kind of experiment: Mutagenicity in Salmonella typhimurium TA102 assessed as mutagenicity index at 1185.19 uM/plate incubated for 90 mins at 37 degC in absence of liver S9 fractions by Ames test relative to control. The following applies: salmonella enterica subsp. enterica serovar typhimurium, 1.5 h.
For data set [29], the system named is Salmonella typhimurium. Description: Mutagenicity in Salmonella typhimurium TA102 assessed as mutagenicity index at 313.73 uM/plate incubated for 90 mins at 37 degC in presence of liver S9 fractions by Ames test relative to control. The settings on record: salmonella enterica subsp. enterica serovar typhimurium, s9, 1.5 h.
The subject of data set [30] is Salmonella typhimurium. Description: Mutagenicity in Salmonella typhimurium TA102 assessed as mutagenicity index at 1185.19 uM/plate incubated for 90 mins at 37 degC in presence of liver S9 fractions by Ames test relative to control. The settings on record: salmonella enterica subsp. enterica serovar typhimurium, s9, 1.5 h.
Data set [31] has as its system Salmonella typhimurium. Description: Mutagenicity in Salmonella typhimurium TA98 assessed as mutagenicity index at 313.73 uM/plate incubated for 90 mins at 37 degC in absence of liver S9 fractions by Ames test relative to control. The following applies: salmonella enterica subsp. enterica serovar typhimurium, 1.5 h.

Turning to `CS(=O)(=O)OCCCCCCCCCCCCn1cc(CCCO)nn1`, the Activity_index in data set [1] is reported as 1.1; in data set [2], 1.3; in data set [3] it was 1.1; in data set [4] it was 0.8; in [5], 1.3; in [6], 0.7. The Activity_index in data set [7] is 0.8; in data set [8], 1.3; in data set [9] it was 1.1; in data set [10], 1.2; in [11], 0.9; in data set [12], 0.9. In addition, the Activity_index in data set [13] is 0.9; in [14], 1; in data set [15], 1.1; in [16], 1; in [17] it was 1.4.
`CCOC(=O)c1cn(CCCCCCCCCOS(C)(=O)=O)nn1`: the Activity_index in data set [18] came out at 1; in data set [19], 0.8; in data set [20], 1; in data set [21], 0.8; in data set [22], 0.8; in data set [23], 1.2. Further, the Activity_index in [24] worked out at 1; in data set [25], 1.8; in [26], 0.9; in data set [27], 0.9; in data set [28] it was 1.2; in data set [29] it was 1.4. For the same compound, the results for the Activity_index in data set [30] and in data set [31] were 1.4 and 1.5, respectively.

For the origin of these results see ChEMBL document CHEMBL3611972, “Leishmanicidal, antiproteolytic, and mutagenic evaluation of alkyltriazoles and alkylphosphocholines” (Eur J Med Chem, 2015).
